Structures are written as SMILES.

We go through four molecules from ChEMBL document CHEMBL1143952, “Synthesis and characterization of carnitine nitro-derivatives” (Bioorg Med Chem, 2008).

Data set [1] can be described thus: Metabolic stability in phosphate buffer saline assessed as biotransformation after 24 hrs relative to unaltered compound. It counts as ADME. The conditions noted are these: phosphate buffered saline; read-out: Activity.
Data set [2] in a line: Metabolic stability in human saliva assessed as biotransformation after 24 hrs relative to unaltered compound. It counts as ADME. The conditions noted are these: read-out: Activity.
Data set [3] is described as follows: Metabolic stability in human RBC assessed as biotransformation after 24 hrs relative to unaltered compound. It counts as ADME, cell-based, Erythrocyte. The conditions noted are these: red blood cells (RBC), read-out: Activity.
The nature of data set [4]: Metabolic stability in human RBC assessed as nitrite or nitrate production after 24 hrs. It counts as ADME, cell-based. The conditions noted are these: erythrocyte.
Data set [5] addresses T1, Organic cation/carnitine transporter 2 (Rattus norvegicus, UniProt O70594).
T1 sequence (O70594 whole entry): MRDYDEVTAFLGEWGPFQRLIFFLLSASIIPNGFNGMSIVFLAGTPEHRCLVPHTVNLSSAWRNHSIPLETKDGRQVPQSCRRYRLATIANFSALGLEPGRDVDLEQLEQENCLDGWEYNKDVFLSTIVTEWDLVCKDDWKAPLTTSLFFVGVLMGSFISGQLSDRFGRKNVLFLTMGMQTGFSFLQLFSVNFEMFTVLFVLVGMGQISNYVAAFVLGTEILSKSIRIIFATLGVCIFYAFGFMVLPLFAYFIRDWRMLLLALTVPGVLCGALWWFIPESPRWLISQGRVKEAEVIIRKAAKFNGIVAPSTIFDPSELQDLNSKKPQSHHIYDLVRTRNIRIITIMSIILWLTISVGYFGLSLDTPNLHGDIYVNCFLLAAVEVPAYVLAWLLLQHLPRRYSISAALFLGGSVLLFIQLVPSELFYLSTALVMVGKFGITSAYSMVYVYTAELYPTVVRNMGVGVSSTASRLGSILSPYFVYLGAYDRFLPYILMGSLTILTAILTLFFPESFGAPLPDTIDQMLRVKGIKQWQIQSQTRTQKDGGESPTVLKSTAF
Kind of data set: Inhibition of rat kidney brush border membrane OCTN2 transporter assessed as [3H]carnitine uptake after 10 mins.

The target in data set [6] is T2, OCTN2 (organic cation/carnitine transporter 2) (Rattus norvegicus, UniProt O70594).
T2 sequence (O70594 whole entry): T1 sequence (O70594 whole entry)
Kind of data set: Inhibition of rat kidney brush border membrane OCTN2 transporter assessed as [3H]carnitine uptake after 30 mins relative to control. The conditions noted are these: probe [3H]carnitine, read-out: Activity. Also on record: scale not given: the % may be the effect or the level left.

The nature of data set [7]: Metabolic stability in human plasma assessed as biotransformation after 24 hrs relative to unaltered compound.

The term IC50 denotes the concentration needed to halve the response being measured. Regarding `C[N+](C)(C)C[C@H](CC(=O)O)OC(=O)CCCCCO[N+](=O)[O-].[Cl-]`, the degraded at 24 h in data set [1] was determined as 100%. Besides, the figures for the metabolised at 24 h in data set [2], in data set [3] and in data set [7] were 100%, 100% and 45%, respectively. Also, the Activity in data set [4] worked out at 23 nmol/mL. In addition, the IC50 in data set [5] was determined as 76 µM. In addition, the activity at 0.5 h in data set [6] was 20%.

As for `CCOC(=O)C[C@@H](C[N+](C)(C)C)OC(=O)CCCCCO[N+](=O)[O-].[Cl-]`, in data set [1], the degraded at 24 h came out at 100%. The metabolised at 24 h in data set [2], in data set [3] and in data set [7] was 100% each time. Besides, the Activity in data set [4] amounted to 22 nmol/mL. For the same molecule, the activity at 0.5 h in data set [6] is 1.5%.

Take `CCOC(=O)C[C@@H](C[N+](C)(C)C)OC(=O)CCCCCCCCCCCCCCCO[N+](=O)[O-].[Cl-]`: the degraded at 24 h in data set [1] was found to be 100%. The metabolised at 24 h is 75% in data set [2], 73% in data set [3] and 100% in data set [7]. The Activity in data set [4] is 40 nmol/mL. Moreover, the IC50 in data set [5] was 443 µM. Besides, the activity at 0.5 h in data set [6] amounted to 3.1%.

Regarding `C[N+](C)(C)C[C@H](CC(=O)O)OC(=O)CCCCCCCCCCCCCCCO[N+](=O)[O-].[Cl-]`, the degraded at 24 h in data set [1] amounted to 100%. Further, the metabolised at 24 h turned out to be 100% in data set [2], 56% in data set [3] and 100% in data set [7]. In addition, the Activity in data set [4] came out at 62 nmol/mL. In data set [5], the IC50 worked out at 53 µM. Moreover, the activity at 0.5 h in data set [6] came to 16.3%.
